System: 885724-159-R-J1-PDC spheroids viability
Assay: Anticancer human tumor 885724-159-R-J1-PDC patient-derived pancreatic adenocarcinoma cell line growth inhibition [TAK]
Details: spheroids with HUVEC and MSC; for IC50: curve of first compound; for viability, T/C: stronger effect = lower value
Procedure, shortened: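 Drug combinations, each paired with TAK-243 or ipatasertib, were tested on multi-cell spheroids of 60% malignant cells, 25% HUVEC and 15% hMSC. Top concentrations were at or near the clinical Cmax (10 microM if undetermined), decreasing by half-log; viability is given as % test/control.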

[1] = second compound 0.3 µM, first compound 0.0316 µM
[2] = second compound 0.3 µM, first compound 0.1 µM
[3] = second compound 0.3 µM, first compound 0.316 µM
[4] = second compound 0.3 µM, first compound 1 µM
[5] = second compound 0.949 µM, first compound 0.0316 µM
[6] = second compound 0.949 µM, first compound 0.1 µM
[7] = second compound 0.949 µM, first compound 0.316 µM
[8] = second compound 0.949 µM, first compound 1 µM
[9] = second compound 3 µM, first compound 0.0316 µM
[10] = second compound 3 µM, first compound 0.1 µM
[11] = second compound 3 µM, first compound 0.316 µM
[12] = second compound 3 µM, first compound 1 µM
[13] = second compound 9.49 µM, first compound 0.0316 µM
[14] = second compound 9.49 µM, first compound 0.1 µM
[15] = second compound 9.49 µM, first compound 0.316 µM
[16] = second compound 9.49 µM, first compound 1 µM
[17] = second compound 30 µM, first compound 0.0316 µM
[18] = second compound 30 µM, first compound 0.1 µM
[19] = second compound 30 µM, first compound 0.316 µM
[20] = second compound 30 µM, first compound 1 µM
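Note: spheroids exposed to drugs for seven days.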
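Throughout, for viability, T/C: 100% = DMSO vehicle control viability.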

Structure (SMILES) | IC50 (second compound 0.3 µM) | IC50 (second compound 0.949 µM) | IC50 (second compound 3 µM) | IC50 (second compound 9.49 µM) | IC50 (second compound 30 µM) | viability, T/C [1] | viability, T/C [2] | viability, T/C [3] | viability, T/C [4] | viability, T/C [5] | viability, T/C [6] | viability, T/C [7] | viability, T/C [8] | viability, T/C [9] | viability, T/C [10] | viability, T/C [11] | viability, T/C [12] | viability, T/C [13] | viability, T/C [14] | viability, T/C [15] | other results
COc1c(OCCCN2CCOCC2)ccc2c3n(c(=NC(=O)c4cnc(N)nc4)nc12)CCN3 + CC(C)NCC(C(=O)N1CCN(c2ncnc3c2C(C)CC3O)CC1)c1ccc(Cl)cc1 | 4.05 nM | < 3.16 nM | < 3.16 nM | < 3.16 nM | < 3.16 nM | 27.3% | 19.4% | 13.4% | 12.3% | 20.3% | 14.8% | 12.1% | 10.8% | 16% | 13.7% | 11.6% | 11.2% | 13.8% | 11.3% | 9.95% | viability, T/C (second compound 0.3 µM, first compound 0.00316 µM): 52.4%; viability, T/C (second compound 0.3 µM, first compound 0.01 µM): 41.2%; viability, T/C (second compound 0.949 µM, first compound 0.00316 µM): 32.9%; viability, T/C (second compound 0.949 µM, first compound 0.01 µM): 27.1%; viability, T/C (second compound 3 µM, first compound 0.00316 µM): 26.9%; viability, T/C (second compound 3 µM, first compound 0.01 µM): 20.4%; viability, T/C (second compound 9.49 µM, first compound 0.00316 µM): 22.8%; viability, T/C (second compound 9.49 µM, first compound 0.01 µM): 18.9%; viability, T/C [16]: 10.2%; viability, T/C (second compound 30 µM, first compound 0.00316 µM): 18%; viability, T/C (second compound 30 µM, first compound 0.01 µM): 12.7%; viability, T/C [17]: 9.8%; viability, T/C [18]: 9.29%; viability, T/C [19]: 6.93%; viability, T/C [20]: 6.96%
Cc1nc(NC(=O)N2CCCC2C(N)=O)sc1-c1ccnc(C(C)(C)C(F)(F)F)c1 (stereo not given) + CC(C)NCC(C(=O)N1CCN(c2ncnc3c2C(C)CC3O)CC1)c1ccc(Cl)cc1 | 154 nM | < 31.6 nM | < 31.6 nM | < 31.6 nM | < 31.6 nM | 60.9% | 46.4% | 47.6% | 41.5% | 47.9% | 44.2% | 35.9% | 27.8% | 44.5% | 43.5% | 28.9% | 21.3% | 40% | 35.2% | 26.9% | viability, T/C (second compound 0.3 µM, first compound 3.16 µM): 27.5%; viability, T/C (second compound 0.3 µM, first compound 10 µM): 19.4%; viability, T/C (second compound 0.949 µM, first compound 3.16 µM): 20.8%; viability, T/C (second compound 0.949 µM, first compound 10 µM): 14.3%; viability, T/C (second compound 3 µM, first compound 3.16 µM): 19%; viability, T/C (second compound 3 µM, first compound 10 µM): 12.7%; viability, T/C [16]: 19.4%; viability, T/C (second compound 9.49 µM, first compound 3.16 µM): 14.3%; viability, T/C (second compound 9.49 µM, first compound 10 µM): 9.85%; viability, T/C [17]: 28.8%; viability, T/C [18]: 26.4%; viability, T/C [19]: 19.6%; viability, T/C [20]: 14.3%; viability, T/C (second compound 30 µM, first compound 3.16 µM): 10.7%; viability, T/C (second compound 30 µM, first compound 10 µM): 6.4%
